Earlier results, collected in article PMC5891061, “Electrophysiological mechanisms of vandetanib-induced cardiotoxicity: Comparison of action potentials in rabbit Purkinje fibers and pluripotent stem cell-derived cardiomyocytes” (PLoS ONE, 2018).

How the values were obtained:
hiPSC-CMs = details: cited from earlier work
INa in hiPSC-CMs = INa in hiPSC-CMs (Homo sapiens, UniProt Q14524); details: hiPSC-CMs compared with HEK293 cells; cited from earlier work
INa in hiPSC-CMs, sequence (Q14524 212-1075 limits assumed): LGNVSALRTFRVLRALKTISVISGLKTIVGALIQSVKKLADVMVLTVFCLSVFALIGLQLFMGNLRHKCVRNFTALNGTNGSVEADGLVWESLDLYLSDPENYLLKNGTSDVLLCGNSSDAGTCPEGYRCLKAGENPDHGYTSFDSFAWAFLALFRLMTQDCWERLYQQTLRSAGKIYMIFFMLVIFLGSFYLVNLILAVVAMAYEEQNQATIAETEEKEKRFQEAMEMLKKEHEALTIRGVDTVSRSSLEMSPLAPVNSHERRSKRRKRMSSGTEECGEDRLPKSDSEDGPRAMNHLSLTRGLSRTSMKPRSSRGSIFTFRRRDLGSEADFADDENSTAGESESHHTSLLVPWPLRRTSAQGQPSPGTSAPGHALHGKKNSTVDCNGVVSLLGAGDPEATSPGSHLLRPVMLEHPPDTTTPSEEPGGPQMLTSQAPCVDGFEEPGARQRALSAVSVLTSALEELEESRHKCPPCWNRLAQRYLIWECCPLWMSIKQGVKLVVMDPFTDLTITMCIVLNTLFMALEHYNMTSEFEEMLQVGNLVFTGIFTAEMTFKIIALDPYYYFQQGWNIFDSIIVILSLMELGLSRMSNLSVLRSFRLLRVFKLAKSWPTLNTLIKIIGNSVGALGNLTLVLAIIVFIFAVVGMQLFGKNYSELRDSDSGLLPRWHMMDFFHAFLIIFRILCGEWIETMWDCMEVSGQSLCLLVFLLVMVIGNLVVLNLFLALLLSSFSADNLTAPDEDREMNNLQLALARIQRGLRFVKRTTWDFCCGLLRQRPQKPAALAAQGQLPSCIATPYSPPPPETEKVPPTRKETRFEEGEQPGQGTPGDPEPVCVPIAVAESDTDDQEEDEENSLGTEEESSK
INa in hiPSC-CMs, sequence (Q14524 1131-2016 limits assumed): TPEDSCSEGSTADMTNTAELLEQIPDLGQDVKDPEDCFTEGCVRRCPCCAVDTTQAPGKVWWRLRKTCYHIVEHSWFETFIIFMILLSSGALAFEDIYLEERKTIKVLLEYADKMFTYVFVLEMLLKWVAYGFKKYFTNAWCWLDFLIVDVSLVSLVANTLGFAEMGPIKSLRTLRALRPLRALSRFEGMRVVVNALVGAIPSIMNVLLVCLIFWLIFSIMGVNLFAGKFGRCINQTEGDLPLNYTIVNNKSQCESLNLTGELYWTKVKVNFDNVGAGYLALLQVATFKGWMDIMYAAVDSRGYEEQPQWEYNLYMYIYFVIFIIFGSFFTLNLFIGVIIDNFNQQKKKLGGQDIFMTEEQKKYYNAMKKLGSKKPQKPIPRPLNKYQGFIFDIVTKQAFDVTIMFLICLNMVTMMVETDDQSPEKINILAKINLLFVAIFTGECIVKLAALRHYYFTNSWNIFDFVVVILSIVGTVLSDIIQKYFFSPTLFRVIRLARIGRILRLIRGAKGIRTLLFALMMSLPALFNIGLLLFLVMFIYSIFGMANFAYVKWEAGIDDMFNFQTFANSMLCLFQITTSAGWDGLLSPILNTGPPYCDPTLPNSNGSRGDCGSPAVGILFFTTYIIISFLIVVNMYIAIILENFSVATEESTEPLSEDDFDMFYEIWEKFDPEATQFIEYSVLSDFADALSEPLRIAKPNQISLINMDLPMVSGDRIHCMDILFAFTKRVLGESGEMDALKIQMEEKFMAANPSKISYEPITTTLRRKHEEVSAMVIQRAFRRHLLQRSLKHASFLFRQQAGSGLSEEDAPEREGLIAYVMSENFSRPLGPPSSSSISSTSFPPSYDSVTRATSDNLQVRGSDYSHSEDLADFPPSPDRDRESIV

**Q.** For `CCc1nn(CCCN2CCN(c3cccc(Cl)c3)CC2)c(=O)n1CCOc1ccccc1` [nefazodone], which “Effect on Vmax” value (hiPSC-CMs) is on record?
**A.** significantly decreased

**Q.** What about the “Block of INa, sensitivity” value (INa in hiPSC-CMs) of the same molecule?
**A.** greater sensitivity than in HEK293 cells
